Results reported in ChEMBL document CHEMBL2057118, “Synthesis and biological evaluation of novel 2,4,6-triazine derivatives as antimicrobial agents” (2012).
Converted amounts (≈) assume the structure as drawn.

Experiments:
Format in all cases: functional
Pseudomonas aeruginosa = experiment: Antimicrobial activity against Pseudomonas aeruginosa MTCC 1688 after 24 hrs by agar well diffusion method; conditions: for MIC: Pseudomonas aeruginosa, MTCC 1688, 24 h
Aspergillus niger = experiment: Antifungal activity against Aspergillus niger MTCC 1781 after 2 to 3 days by agar well diffusion method
Staphylococcus aureus = experiment: Antimicrobial activity against Staphylococcus aureus MTCC 96 after 24 hrs by agar well diffusion method; conditions: for MIC: Staphylococcus aureus, MTCC 96, 24 h
Bacillus subtilis = experiment: Antimicrobial activity against Bacillus subtilis MTCC 441 after 24 hrs by agar well diffusion method; conditions: for MIC: Bacillus subtilis, MTCC 441, 24 h
Escherichia coli = experiment: Antimicrobial activity against Escherichia coli MTCC 1650 after 24 hrs by agar well diffusion method; conditions: for MIC: Escherichia coli, MTCC 1650, 24 h
Candida albicans = experiment: Antifungal activity against Candida albicans MTCC 227 after 2 to 3 days by agar well diffusion method

Molecule	inhibition zone (IZ) (Pseudomonas aeruginosa)	MIC (Pseudomonas aeruginosa)	inhibition zone (IZ) (Aspergillus niger)	MIC (Aspergillus niger; Aspergillus niger, MTCC 1781)	inhibition zone (IZ) (Staphylococcus aureus)	MIC (Staphylococcus aureus)	inhibition zone (IZ) (Bacillus subtilis)	MIC (Bacillus subtilis)	inhibition zone (IZ) (Escherichia coli)	MIC (Escherichia coli)	inhibition zone (IZ) (Candida albicans)	MIC (Candida albicans; Candida albicans, MTCC 227)	MIC (Aspergillus niger)	MIC (Candida albicans)
Cl.N#Cc1ccc(Nc2nc(N3CCOCC3)nc(N3CCOCC3)n2)cn1	10 mm	50 µg/mL	14 mm	100 µg/mL	12 mm	50 µg/mL	12 mm	50 µg/mL	12 mm	50 µg/mL	14 mm	50 µg/mL	–	–
Cl.N#Cc1ccc(Nc2nc(N3CCCC3)nc(N3CCCC3)n2)cn1	12 mm	100 µg/mL	14 mm	50 µg/mL	12 mm	100 µg/mL	12 mm	100 µg/mL	12 mm	50 µg/mL	12 mm	50 µg/mL	–	–
Cc1ccc(Nc2nc(Nc3ccc(C)cc3)nc(Nc3ccc(C#N)nc3)n2)cc1.Cl	10 mm	25 µg/mL	14 mm	100 µg/mL	12 mm	12.5 µg/mL	12 mm	25 µg/mL	12 mm	12.5 µg/mL	14 mm	25 µg/mL	–	–
Cl.N#Cc1ccc(Nc2nc(N3CCNCC3)nc(N3CCNCC3)n2)cn1	10 mm	50 µg/mL	14 mm	100 µg/mL	12 mm	50 µg/mL	12 mm	50 µg/mL	12 mm	50 µg/mL	14 mm	25 µg/mL	–	–
COCCNc1nc(NCCOC)nc(Nc2ccc(C#N)nc2)n1.Cl	12 mm	6.25 µg/mL	14 mm	12.5 µg/mL	12 mm	12.5 µg/mL	12 mm	6.25 µg/mL	12 mm	6.25 µg/mL	12 mm	12.5 µg/mL	–	–
CC(=O)N1CCN(c2nc(Nc3ccc(C#N)nc3)nc(N3CCN(C(C)=O)CC3)n2)CC1.Cl	10 mm	50 µg/mL	14 mm	100 µg/mL	12 mm	50 µg/mL	12 mm	50 µg/mL	12 mm	50 µg/mL	14 mm	25 µg/mL	–	–
Cl.N#Cc1ccc(Nc2nc(N3CCN(C(=O)c4ccccc4)CC3)nc(N3CCN(C(=O)c4ccccc4)CC3)n2)cn1	14 mm	25 µg/mL	12 mm	50 µg/mL	12 mm	12.5 µg/mL	10 mm	12.5 µg/mL	12 mm	25 µg/mL	14 mm	50 µg/mL	–	–
Cl.N#Cc1ccc(Nc2nc(N3CCN(c4ccccc4)CC3)nc(N3CCN(c4ccccc4)CC3)n2)cn1	10 mm	6.25 µg/mL	14 mm	25 µg/mL	12 mm	6.25 µg/mL	10 mm	6.25 µg/mL	12 mm	6.25 µg/mL	14 mm	25 µg/mL	–	–
Cl.N#Cc1ccc(Nc2nc(Nc3cc[nH]n3)nc(Nc3cc[nH]n3)n2)cn1	14 mm	12.5 µg/mL	14 mm	12.5 µg/mL	12 mm	12.5 µg/mL	10 mm	6.25 µg/mL	12 mm	6.25 µg/mL	14 mm	12.5 µg/mL	–	–
Cl.N#Cc1ccc(Nc2nc(NC3CCCC3)nc(NC3CCCC3)n2)cn1	12 mm	12.5 µg/mL	12 mm	25 µg/mL	12 mm	6.25 µg/mL	12 mm	6.25 µg/mL	10 mm	6.25 µg/mL	12 mm	25 µg/mL	–	–
COc1cccc(Nc2nc(Nc3ccc(C#N)nc3)nc(Nc3cccc(OC)c3)n2)c1.Cl	12 mm	12.5 µg/mL	12 mm	25 µg/mL	12 mm	6.25 µg/mL	10 mm	12.5 µg/mL	14 mm	6.25 µg/mL	12 mm	25 µg/mL	–	–
Cl.N#Cc1ccc(Nc2nc(Nc3ccc(F)cc3)nc(Nc3ccc(F)cc3)n2)cn1	12 mm	50 µg/mL	12 mm	25 µg/mL	12 mm	25 µg/mL	10 mm	25 µg/mL	14 mm	25 µg/mL	12 mm	25 µg/mL	–	–
CN[C@@H]1[C@H](O[C@H]2[C@H](O[C@H]3[C@H](O)[C@@H](O)[C@H](N=C(N)N)[C@@H](O)[C@@H]3N=C(N)N)O[C@@H](C)[C@]2(O)C=O)O[C@@H](CO)[C@H](O)[C@H]1O [STREPTOMYCIN]	24 mm	6.25 µg/mL (≈ 10.7 µM)	–	–	20 mm	6.25 µg/mL (≈ 10.7 µM)	22 mm	6.25 µg/mL (≈ 10.7 µM)	22 mm	6.25 µg/mL (≈ 10.7 µM)	–	–	–	–
CN(C)CCNc1nc(NCCN(C)C)nc(Nc2ccc(C#N)nc2)n1.Cl	12 mm	12.5 µg/mL	12 mm	25 µg/mL	12 mm	12.5 µg/mL	12 mm	25 µg/mL	14 mm	12.5 µg/mL	14 mm	25 µg/mL	–	–
NYSTATIN	–	–	20 mm	–	–	–	–	–	–	–	20 mm	–	6.25 µg/mL	6.25 µg/mL
CN1CCN(c2nc(Nc3ccc(C#N)nc3)nc(N3CCN(C)CC3)n2)CC1.Cl	10 mm	12.5 µg/mL	12 mm	50 µg/mL	12 mm	12.5 µg/mL	12 mm	12.5 µg/mL	12 mm	12.5 µg/mL	10 mm	50 µg/mL	–	–
Cl.N#Cc1ccc(Nc2nc(NC3CCCCC3)nc(NC3CCCCC3)n2)cn1	10 mm	6.25 µg/mL	14 mm	12.5 µg/mL	12 mm	6.25 µg/mL	12 mm	6.25 µg/mL	12 mm	6.25 µg/mL	14 mm	12.5 µg/mL	–	–
Cl.N#Cc1ccc(Nc2nc(N3CCCCC3)nc(N3CCCCC3)n2)cn1	12 mm	25 µg/mL	14 mm	25 µg/mL	12 mm	50 µg/mL	10 mm	50 µg/mL	14 mm	25 µg/mL	10 mm	50 µg/mL	–	–
Cl.N#Cc1ccc(Nc2nc(NCc3ccco3)nc(NCc3ccco3)n2)cn1	12 mm	6.25 µg/mL	12 mm	12.5 µg/mL	12 mm	6.25 µg/mL	10 mm	6.25 µg/mL	14 mm	6.25 µg/mL	12 mm	12.5 µg/mL	–	–
Cl.N#Cc1ccc(Nc2nc(NCCN3CCOCC3)nc(NCCN3CCOCC3)n2)cn1	12 mm	25 µg/mL	14 mm	50 µg/mL	12 mm	50 µg/mL	10 mm	25 µg/mL	14 mm	25 µg/mL	12 mm	25 µg/mL	–	–
